Assay results: US20230271938A1, “BENZIMIDAZOLES FOR USE IN THE TREATMENT OF CANCER AND INFLAMMATORY DISEASES” (Capella Therapeutics, Inc., priority 2015, published 2023)

How the values were obtained:
PIK3C-D = PIK3C-D (Homo sapiens, UniProt O00329); experiment: Inhibition of PIK3C-D kinase; format: biochemical
Text: The Z′-LYTE® biochemical assay is a fluorescence-based, coupled-enzyme assay based on the differential sensitivity of phosphorylated and non-phosphorylated peptides to proteolytic cleavage. A peptide substrate for a kinase is labeled with two fluorophores, one at each end, to form a FRET pair.
In the primary reaction, the kinase transfers the gamma-phosphate of ATP to a single tyrosine, serine, or threonine residue in the synthetic FRET-peptide substrate. In the secondary reaction, a site-specific protease recognizes and cleaves non-phosphorylated FRET-peptides. Cleavage disrupts FRET between the donor and acceptor fluorophores on the FRET-peptide, whereas uncleaved, phosphorylated FRET-peptides maintain FRET. An inhibitory activity of a compound is thus determined from its effect on the cleavage of the synthetic FRET-peptide substrate.
Binding of an ALEXA FLUOR® conjugate or “tracer” to a kinase is detected by addition of a Eu-labeled anti-tag antibody. […] An inhibitory activity of a compound is thus determined from the extent of the FRET signal loss. Inhibition of ITK and TEC kinases by a test compound is determined in the presence of 1% DMSO.
(§1) Inhibition of BMX, BTK, PIK3C-D, ITK, TEC, and TXK kinases by compound A2 was measured using one of the assays described in Examples 2A and 3A.

TEC = target: T1, TEC (Homo sapiens, UniProt P42680); experiment: Inhibition of TEC kinase; format: binding; conditions: 1% DMSO
T1 sequence (P42680 1-631): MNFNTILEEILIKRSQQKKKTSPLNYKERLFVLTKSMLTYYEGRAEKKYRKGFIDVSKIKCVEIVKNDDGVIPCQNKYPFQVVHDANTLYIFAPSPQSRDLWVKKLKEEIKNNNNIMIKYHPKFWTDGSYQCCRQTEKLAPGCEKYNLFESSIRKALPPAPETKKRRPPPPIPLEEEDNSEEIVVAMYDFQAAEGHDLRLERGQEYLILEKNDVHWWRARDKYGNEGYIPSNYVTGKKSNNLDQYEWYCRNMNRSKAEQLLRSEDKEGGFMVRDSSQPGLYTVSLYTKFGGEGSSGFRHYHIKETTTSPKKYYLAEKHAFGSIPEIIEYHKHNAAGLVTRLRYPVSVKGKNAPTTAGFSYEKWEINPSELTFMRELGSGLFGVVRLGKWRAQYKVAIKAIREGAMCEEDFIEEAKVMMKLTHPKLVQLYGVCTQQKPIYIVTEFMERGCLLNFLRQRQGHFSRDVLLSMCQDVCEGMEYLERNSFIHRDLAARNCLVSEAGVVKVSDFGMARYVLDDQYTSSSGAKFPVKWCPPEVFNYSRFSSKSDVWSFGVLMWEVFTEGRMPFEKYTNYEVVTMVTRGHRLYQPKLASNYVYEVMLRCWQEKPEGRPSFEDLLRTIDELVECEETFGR
Experimental: Binding of an ALEXA FLUOR® conjugate or “tracer” to a kinase is detected by addition of a Eu-labeled anti-tag antibody. Binding of the tracer and antibody to a kinase results in a high degree of FRET, whereas displacement of the tracer with a kinase inhibitor results in a loss of FRET. An inhibitory activity of a compound is thus determined from the extent of the FRET signal loss. Inhibition of ITK and TEC kinases by a test compound is determined in the presence of 1% DMSO.
as §1

[1] = tested on: H1975 human NSCLC adenocarcinoma cells (drug-resistant mutant ERBB1, T790M in-cis with L858R); experiment: Cell proliferation assay, H1975; format: cell-based
Experimental: The biological activity of a test compound was determined using cell proliferation assays. The activity against wild-type ERBB 1 was determined using A431 human epidermoid carcinoma cells (ATCC) and human epidermal keratinocytes, neonatal, or HEKn cells (ATCC).
A431 cells were grown in DMEM (Invitrogen) supplemented with 10% FBS (Lonza), 1% penicillin-streptomycin, and 2 mM glutamine (Invitrogen). HEKn cells were grown in EPILIFE® (Invitrogen) supplemented with HKGS (Invitrogen). HCC827 and H1975 were cultured in RPMI1640 supplemented with 10% FBS (Lonza), 1% penicillin-streptomycin, and 2 mM glutamine (Invitrogen). Cells were maintained and propagated at 37° C. and 5% CO2 in a humidified cell culture incubator. Aliquots of cells from early passages were preserved for liquid nitrogen storage. Frozen vials of cells were thawed at 37° C. water bath. Cells were spun to remove freezing medium. The newly revived frozen cells were adapted in culture for 10 days before used for compound testing. Cells used in the assay were less than 20 subculture passages or 3 months in culture.
The test compounds were dissolved in dimethylsulfoxide (DMSO) and stored at -20° C. before testing. […] The cells were placed in a culture incubator overnight. Next day, test compounds in DMSO were added to the cells and placed back in the culture incubator for 72 hrs. In the meantime, the cell numbers at time zero of the compound treatment (T0) was measured by ENERCOUNT® (Codex BioSolutions). At the end of the compound treatment, the cell numbers were again measured by EnerCount as T72 values. The untreated controls (Ctrl) were cell numbers recorded from the 0.1% DMSO treatment. The percent growth inhibition by the test compound was calculated by the formula: (1- (T72-T0)/(Ctrl-T0)) x 100.
The results are summarized in Tables 1 and 2, wherein A represents a value no greater than 500 nM, B represents a value greater than 500 nM but no greater than 1 µM, C represents a value greater than 1 µM but no greater than 5 µM, and D represents a value greater than 5 µM; and wherein A′ represents a ratio of greater than 10, B′ represents a ratio of no greater than 10 but no less than 5, C′ represents a ratio of no greater than 5 but no less than 2, and D′ represents a ratio of no greater than 2.

PIK3C-D, sequence (O00329 whole entry): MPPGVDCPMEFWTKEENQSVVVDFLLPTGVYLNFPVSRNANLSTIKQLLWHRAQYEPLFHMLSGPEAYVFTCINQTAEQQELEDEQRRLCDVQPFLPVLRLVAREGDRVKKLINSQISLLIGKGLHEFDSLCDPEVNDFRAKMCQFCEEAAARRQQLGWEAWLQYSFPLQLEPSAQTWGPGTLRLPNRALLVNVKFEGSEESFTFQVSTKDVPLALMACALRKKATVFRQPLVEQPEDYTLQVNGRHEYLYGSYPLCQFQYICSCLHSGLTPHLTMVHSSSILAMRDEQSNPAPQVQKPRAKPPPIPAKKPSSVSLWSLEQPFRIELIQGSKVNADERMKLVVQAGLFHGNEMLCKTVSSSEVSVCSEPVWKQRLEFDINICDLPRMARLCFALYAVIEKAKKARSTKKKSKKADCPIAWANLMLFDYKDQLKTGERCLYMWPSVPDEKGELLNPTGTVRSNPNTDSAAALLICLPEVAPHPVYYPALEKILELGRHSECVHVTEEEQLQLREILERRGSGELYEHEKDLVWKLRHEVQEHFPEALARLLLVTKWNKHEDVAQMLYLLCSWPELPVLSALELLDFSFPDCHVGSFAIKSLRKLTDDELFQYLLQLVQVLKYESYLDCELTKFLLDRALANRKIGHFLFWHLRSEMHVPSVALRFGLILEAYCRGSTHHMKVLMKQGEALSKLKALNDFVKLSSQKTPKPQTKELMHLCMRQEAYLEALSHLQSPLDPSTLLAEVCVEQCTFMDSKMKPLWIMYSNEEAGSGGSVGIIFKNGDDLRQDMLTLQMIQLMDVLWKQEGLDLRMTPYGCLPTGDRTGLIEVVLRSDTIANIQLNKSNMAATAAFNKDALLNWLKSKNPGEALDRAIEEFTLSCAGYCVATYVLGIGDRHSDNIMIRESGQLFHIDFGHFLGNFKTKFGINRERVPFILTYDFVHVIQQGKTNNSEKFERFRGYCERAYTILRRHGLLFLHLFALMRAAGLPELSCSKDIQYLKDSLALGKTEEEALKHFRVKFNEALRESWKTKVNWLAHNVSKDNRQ
PIK3C-D, sequence (P27986 whole entry partner): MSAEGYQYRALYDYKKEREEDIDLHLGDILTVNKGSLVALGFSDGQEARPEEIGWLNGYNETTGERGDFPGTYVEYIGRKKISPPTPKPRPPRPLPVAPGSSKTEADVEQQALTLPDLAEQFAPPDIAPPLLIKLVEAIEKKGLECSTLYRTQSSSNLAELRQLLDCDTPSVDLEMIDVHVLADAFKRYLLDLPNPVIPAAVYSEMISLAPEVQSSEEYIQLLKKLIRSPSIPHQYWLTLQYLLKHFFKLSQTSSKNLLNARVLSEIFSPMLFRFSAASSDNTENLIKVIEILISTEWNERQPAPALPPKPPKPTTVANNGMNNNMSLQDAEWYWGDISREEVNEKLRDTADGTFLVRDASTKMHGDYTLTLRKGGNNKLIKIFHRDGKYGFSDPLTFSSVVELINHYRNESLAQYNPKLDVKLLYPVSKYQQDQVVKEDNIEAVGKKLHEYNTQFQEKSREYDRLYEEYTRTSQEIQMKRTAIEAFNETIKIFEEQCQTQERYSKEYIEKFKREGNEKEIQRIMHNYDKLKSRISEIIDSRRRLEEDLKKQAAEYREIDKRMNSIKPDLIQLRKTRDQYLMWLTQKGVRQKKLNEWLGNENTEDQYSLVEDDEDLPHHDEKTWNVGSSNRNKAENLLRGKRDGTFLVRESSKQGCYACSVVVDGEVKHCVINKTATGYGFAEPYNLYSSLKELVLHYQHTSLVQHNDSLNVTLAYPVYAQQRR

C=CC(=O)N1CCCC[C@@H](n2c(NC(=O)c3ccnc(C)c3)nc3cccc(OC4CCN(C(C)=O)CC4)c32)C1 [Compound A2, (R)-N-(7-((1-acetylpiperidin-4-yl)oxy)-1-(1-acryloylazepan-3-yl)-1H-benzo[d]imidazol-2-yl)-2-methylisonicotinamide] was tested, and the IC50 (PIK3C-D) was at most 10 nM, the Inhibition (PIK3C-D) was “A (A represents a value no greater than 10 nM or no less than 90% inhibition)” and the IC50 (TEC) was at most 10 nM. For the same compound, the Inhibition (TEC) was “A (A represents a value no greater than 10 nM or no less than 90% inhibition)”, the “Ratio (Wild-type ERBB1/Mutant ERBB1) A431/H1975” value ([1]; GI50 ratio A431/H1975) was “B′ (B′ represents a ratio of no greater than 10 but no less than 5)” and the “Ratio (Wild-type ERBB1/Mutant ERBB1) HEKn/H1975” value ([1]; GI50 ratio HEKn/H1975) was “A′ (A′ represents a ratio of greater than 10)”. It also gave a GI50 ([1]; Homo sapiens, NCI-H1975, H1975 cells, 72 hrs) of under 500 nM.
